Source: paper PMC6704710, “Preclinical evaluation of 3D185, a novel potent inhibitor of FGFR1/2/3 and CSF-1R, in FGFR-dependent and macrophage-dominant cancer models” (Journal of Experimental & Clinical Cancer Research : CR, 2019)

Tests used:
Test in all cases: Eurofins kinase panel
Assay type in all cases: biochemical
Conditions in all cases: read-out: Inhibition rate (%)
EGFR(T790M,L858R)(h) = biological target: T1, EGFR(T790M,L858R)(h) (Homo sapiens, UniProt P00533, L858R/T790M)
T1 construct: purchased Eurofins (KinaseProfiler)
Procedure: (§1) Active FGFR1–4, VEGFR1, KDR, VEGFR3, PDGFRα and PDGFRβ proteins were purchased from Eurofins (Fremont, United States), and kinase activity was assessed using ELISA, as previously reported. […]. Increasing concentrations of ATP were diluted for the kinase reaction in the ATP competition assay. CSF-1R kinase activity was analyzed using the Z’-LYTE™ Kinase Assay Kit (Thermo Fisher, United States). The assay formats are described in the SelectScreen Kinase Profiling Service Zlyte protocol. IC50 values were calculated by dose-response curve fitting using Prism (Graph Pad).

ULK1(h) = biological target: T2, ULK1(h) (Homo sapiens, UniProt O75385)
T2 construct: purchased Eurofins (KinaseProfiler)
T2 sequence (O75385 1-1050): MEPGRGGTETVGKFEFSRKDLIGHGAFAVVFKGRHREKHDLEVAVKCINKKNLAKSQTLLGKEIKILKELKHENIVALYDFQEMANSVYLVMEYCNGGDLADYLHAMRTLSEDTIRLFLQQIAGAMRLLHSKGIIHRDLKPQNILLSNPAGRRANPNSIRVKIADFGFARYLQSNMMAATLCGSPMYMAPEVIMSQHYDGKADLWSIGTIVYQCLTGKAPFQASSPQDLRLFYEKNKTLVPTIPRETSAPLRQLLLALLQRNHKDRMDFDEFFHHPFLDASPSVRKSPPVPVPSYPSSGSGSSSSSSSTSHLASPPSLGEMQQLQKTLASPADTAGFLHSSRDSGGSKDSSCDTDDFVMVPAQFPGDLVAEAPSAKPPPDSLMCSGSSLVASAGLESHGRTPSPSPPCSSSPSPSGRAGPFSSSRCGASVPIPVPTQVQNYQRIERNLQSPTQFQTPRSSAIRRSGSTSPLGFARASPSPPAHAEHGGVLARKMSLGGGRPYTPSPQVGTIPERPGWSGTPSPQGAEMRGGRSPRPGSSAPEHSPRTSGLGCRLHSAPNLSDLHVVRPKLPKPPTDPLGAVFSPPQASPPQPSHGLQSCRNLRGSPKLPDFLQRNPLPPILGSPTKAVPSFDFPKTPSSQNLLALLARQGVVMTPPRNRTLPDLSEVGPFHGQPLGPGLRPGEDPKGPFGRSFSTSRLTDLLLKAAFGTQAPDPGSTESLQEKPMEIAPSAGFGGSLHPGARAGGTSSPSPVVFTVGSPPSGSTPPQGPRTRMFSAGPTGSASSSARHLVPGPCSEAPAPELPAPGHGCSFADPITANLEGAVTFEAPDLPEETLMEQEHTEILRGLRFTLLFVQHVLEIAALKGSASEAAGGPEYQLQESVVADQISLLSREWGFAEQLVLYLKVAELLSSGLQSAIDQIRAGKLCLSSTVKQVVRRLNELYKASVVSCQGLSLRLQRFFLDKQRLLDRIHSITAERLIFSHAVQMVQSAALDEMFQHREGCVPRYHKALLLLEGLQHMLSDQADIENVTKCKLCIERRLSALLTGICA
Procedure: as §1

MLK1(h) = biological target: T3, MLK1(h) (Homo sapiens, UniProt P80192)
T3 construct: purchased Eurofins (KinaseProfiler)
Procedure: as §1

DCAMKL3(h) = biological target: T4, DCAMKL3(h) (Homo sapiens, UniProt Q9C098)
T4 construct: purchased Eurofins (KinaseProfiler)
T4 sequence (Q9C098 1-648): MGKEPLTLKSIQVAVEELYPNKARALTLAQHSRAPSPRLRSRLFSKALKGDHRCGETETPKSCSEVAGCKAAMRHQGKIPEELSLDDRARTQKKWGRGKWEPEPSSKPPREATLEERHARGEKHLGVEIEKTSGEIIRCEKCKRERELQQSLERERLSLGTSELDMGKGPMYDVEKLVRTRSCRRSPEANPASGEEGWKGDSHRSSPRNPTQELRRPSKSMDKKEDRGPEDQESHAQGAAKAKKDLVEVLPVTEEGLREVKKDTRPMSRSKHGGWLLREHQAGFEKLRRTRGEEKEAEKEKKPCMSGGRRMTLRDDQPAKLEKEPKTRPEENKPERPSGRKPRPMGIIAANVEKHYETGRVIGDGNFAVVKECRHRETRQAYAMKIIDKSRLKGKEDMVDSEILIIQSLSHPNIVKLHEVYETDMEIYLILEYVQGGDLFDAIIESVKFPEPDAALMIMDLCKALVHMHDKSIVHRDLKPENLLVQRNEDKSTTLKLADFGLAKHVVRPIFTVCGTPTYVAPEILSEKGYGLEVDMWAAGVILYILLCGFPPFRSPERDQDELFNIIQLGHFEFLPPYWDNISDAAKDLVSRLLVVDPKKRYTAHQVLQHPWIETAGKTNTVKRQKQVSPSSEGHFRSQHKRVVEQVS
Procedure: as §1

CaMKIγ(h) = biological target: T5, CaMKIγ(h) (Homo sapiens, UniProt Q96NX5)
T5 construct: purchased Eurofins (KinaseProfiler)
Procedure: as §1

Txk(h) = biological target: T6, Txk(h) (Homo sapiens, UniProt P42681)
T6 construct: purchased Eurofins (KinaseProfiler)
T6 sequence (P42681 1-527): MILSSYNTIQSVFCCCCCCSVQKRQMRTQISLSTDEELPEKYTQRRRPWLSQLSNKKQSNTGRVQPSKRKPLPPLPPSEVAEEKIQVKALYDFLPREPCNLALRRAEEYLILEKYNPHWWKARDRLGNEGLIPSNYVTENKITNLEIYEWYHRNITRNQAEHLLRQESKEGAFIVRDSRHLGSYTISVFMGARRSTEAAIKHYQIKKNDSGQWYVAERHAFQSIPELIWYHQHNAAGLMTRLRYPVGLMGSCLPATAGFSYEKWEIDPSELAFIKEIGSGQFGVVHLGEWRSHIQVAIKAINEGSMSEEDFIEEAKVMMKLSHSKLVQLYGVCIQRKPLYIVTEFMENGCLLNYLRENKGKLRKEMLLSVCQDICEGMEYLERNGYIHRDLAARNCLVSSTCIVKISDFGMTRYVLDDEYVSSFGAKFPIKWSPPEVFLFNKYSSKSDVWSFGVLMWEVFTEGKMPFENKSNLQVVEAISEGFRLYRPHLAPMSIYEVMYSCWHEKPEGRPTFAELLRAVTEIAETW
Procedure: as §1

T3 sequence (P80192 whole entry): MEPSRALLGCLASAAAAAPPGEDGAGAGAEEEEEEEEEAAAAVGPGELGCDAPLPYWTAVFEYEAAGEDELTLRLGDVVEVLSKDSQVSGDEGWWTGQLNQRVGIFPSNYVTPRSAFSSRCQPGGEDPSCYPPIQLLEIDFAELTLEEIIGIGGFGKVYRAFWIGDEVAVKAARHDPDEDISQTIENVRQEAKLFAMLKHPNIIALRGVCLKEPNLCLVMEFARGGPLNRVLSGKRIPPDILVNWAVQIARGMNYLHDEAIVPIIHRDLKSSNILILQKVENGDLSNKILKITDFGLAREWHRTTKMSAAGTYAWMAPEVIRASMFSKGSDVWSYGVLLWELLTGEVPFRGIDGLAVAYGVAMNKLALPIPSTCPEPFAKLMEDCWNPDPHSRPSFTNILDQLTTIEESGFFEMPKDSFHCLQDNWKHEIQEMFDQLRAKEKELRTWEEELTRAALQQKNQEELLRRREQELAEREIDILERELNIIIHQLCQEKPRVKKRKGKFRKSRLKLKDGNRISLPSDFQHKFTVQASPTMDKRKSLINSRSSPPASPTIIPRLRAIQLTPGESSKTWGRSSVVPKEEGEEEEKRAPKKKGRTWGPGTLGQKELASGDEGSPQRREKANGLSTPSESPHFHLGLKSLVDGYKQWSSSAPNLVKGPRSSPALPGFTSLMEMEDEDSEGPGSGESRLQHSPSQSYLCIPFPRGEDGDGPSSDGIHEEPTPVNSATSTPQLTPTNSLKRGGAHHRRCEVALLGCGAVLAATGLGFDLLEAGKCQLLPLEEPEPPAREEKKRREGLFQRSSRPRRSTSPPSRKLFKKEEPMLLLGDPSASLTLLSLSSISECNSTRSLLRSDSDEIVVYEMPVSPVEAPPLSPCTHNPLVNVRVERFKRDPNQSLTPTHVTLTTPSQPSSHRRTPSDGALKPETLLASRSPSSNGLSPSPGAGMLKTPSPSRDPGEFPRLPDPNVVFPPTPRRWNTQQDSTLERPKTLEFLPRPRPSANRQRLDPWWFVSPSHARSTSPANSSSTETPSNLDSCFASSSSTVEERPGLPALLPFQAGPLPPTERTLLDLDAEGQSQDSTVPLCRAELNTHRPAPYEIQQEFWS
T1 sequence (P00533 25-1210 T790M/L858R): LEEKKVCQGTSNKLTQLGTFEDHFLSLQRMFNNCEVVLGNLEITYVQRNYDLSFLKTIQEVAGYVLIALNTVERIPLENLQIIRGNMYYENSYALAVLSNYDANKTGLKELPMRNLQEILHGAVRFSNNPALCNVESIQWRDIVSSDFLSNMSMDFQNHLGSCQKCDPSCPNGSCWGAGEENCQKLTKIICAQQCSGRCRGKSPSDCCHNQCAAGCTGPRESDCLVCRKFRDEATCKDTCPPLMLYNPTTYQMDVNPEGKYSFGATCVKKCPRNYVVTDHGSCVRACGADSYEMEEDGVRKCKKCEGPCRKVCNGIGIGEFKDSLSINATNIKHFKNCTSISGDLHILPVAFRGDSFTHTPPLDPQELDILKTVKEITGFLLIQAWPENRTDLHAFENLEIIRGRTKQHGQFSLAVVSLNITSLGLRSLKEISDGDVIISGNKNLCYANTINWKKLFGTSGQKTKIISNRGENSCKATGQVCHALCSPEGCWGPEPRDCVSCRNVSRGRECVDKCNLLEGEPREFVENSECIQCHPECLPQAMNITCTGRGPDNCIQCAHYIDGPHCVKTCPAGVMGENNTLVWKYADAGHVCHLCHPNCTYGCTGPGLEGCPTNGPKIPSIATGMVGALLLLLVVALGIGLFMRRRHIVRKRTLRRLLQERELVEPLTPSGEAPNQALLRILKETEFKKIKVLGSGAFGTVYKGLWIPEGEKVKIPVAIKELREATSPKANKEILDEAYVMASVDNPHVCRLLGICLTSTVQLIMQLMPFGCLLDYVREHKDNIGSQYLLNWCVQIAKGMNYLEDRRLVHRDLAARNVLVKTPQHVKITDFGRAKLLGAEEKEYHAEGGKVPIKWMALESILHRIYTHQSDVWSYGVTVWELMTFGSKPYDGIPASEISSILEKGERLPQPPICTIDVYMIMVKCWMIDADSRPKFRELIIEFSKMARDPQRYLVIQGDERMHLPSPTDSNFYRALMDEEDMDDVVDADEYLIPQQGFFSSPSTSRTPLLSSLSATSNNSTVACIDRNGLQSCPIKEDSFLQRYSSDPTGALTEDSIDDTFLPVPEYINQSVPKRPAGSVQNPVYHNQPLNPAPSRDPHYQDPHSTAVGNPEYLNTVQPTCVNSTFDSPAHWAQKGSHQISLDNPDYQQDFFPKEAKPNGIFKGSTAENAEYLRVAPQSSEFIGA
T5 sequence (Q96NX5 whole entry): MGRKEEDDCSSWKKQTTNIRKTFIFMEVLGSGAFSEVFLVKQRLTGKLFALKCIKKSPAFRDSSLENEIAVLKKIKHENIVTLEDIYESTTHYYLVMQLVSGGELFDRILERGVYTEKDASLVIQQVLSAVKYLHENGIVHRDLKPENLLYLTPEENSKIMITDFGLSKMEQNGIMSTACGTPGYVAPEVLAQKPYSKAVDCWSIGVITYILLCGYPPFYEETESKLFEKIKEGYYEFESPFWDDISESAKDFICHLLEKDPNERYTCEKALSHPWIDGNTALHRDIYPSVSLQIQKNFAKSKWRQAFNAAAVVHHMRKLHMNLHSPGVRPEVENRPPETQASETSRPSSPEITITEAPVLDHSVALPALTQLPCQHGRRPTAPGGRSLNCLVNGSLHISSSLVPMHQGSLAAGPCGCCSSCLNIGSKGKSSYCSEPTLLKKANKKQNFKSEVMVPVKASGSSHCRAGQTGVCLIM

COc1cc(OC)c(Cl)c(-c2ccc3c(NC(=O)c4ccc(N5CCNC(C)(C)C5)cc4)n[nH]c3n2)c1Cl [3D185]
inhibition at 0.01 µM (EGFR(T790M,L858R)(h); 10 nM): 6% | inhibition at 0.1 µM (EGFR(T790M,L858R)(h); 100 nM): 38% | inhibition at 1 µM (EGFR(T790M,L858R)(h); 1000 nM): 79% | inhibition at 0.01 µM (ULK1(h); 10 nM): -2% | inhibition at 0.1 µM (ULK1(h); 100 nM): 4% | inhibition at 1 µM (ULK1(h); 1000 nM): 5% | inhibition at 0.01 µM (MLK1(h); 10 nM): -9% | inhibition at 0.1 µM (MLK1(h); 100 nM): -1% | inhibition at 1 µM (MLK1(h); 1000 nM): 26% | inhibition at 0.01 µM (DCAMKL3(h); 10 nM): 5% | inhibition at 0.1 µM (DCAMKL3(h); 100 nM): 7% | inhibition at 1 µM (DCAMKL3(h); 1000 nM): 16% | inhibition at 0.01 µM (CaMKIγ(h); 10 nM): -1% | inhibition at 0.1 µM (CaMKIγ(h); 100 nM): 3% | inhibition at 1 µM (CaMKIγ(h); 1000 nM): 41% | inhibition at 0.01 µM (Txk(h); 10 nM): 18% | inhibition at 0.1 µM (Txk(h); 100 nM): 27% | inhibition at 1 µM (Txk(h); 1000 nM): 49%
